# Values quoted from earlier work in patent publication US8207181B2, “Substituted dihydro, trihydro and tetrahydro cycloalkyloxazolopyrimidinones, preparation and use thereof” (Sanofi, priority 2008, dated 2012).
# Key:
# schizophrenia = details: compared to placebo
# healthy human subjects = details: pretreatment
# [1] = system: pentylenetetrazole- and picrotoxin-induced seizures
# animal models = details: some animal models
compound,measurement,setting,value
N[C@H](C(=O)O)c1ccc(C(=O)O)c(O)c1 [(S)-4-carboxy-3-hydroxyphenylglycine],protection against audiogenic seizures,DBA/2 mice,protects against audiogenic seizures
CSCC[C@H](N)C(=O)N[C@@]1(C(=O)O)CS(=O)(=O)[C@H]2[C@H](C(=O)O)[C@H]21 [LY2140023],improvement in positive and negative symptoms of schizophrenia,schizophrenia,statistically significant improvements in both positive and negative symptoms of schizophrenia
N[C@@]1(C(=O)O)CO[C@H]2[C@H](C(=O)O)[C@H]21 [LY379268],effect on REM sleep and fast EEG,rat,suppresses rapid eye movement (REM) sleep and fast EEG
N[C@@]1(C(=O)O)CC[C@H]2[C@H](C(=O)O)[C@H]21 [LY354740],effect on ketamine disruption of working memory,healthy human subjects,"attenuation of the disruptive effects of the NMDA glutamate receptor antagonist, ketamine, on working memory"
same,effect on chemically induced seizures,[1],attenuates pentylenetetrazole- and picrotoxin-induced seizures
Cc1c(OCc2cccc(-c3ccc(C(=O)O)cc3)c2)cc2c(c1C)C(=O)C(C1CCCC1)C2 (stereo not shown) [biphenyl-indanone A],antipsychotic- and anxiolytic-like effects,mice,antipsychotic- and anxiolytic-like effects
N[C@]1(C(=O)O)[C@H]2[C@@H](C[C@H]1OCc1ccc(Cl)c(Cl)c1)[C@]2(F)C(=O)O [MGS0039],antidepressant-like effects,animal models,dose-dependent antidepressant-like effects
